In patent publication US5859188A, “Method for discovering novel anthelmintic compounds” (priority 1997, dated 1999):
Ends that are not written are not given here. Peptide text beside a SMILES is read from it. * marks the point of attachment. X1 = CC(C)C[C@@H](CN[C@@H](CCCNC(=N)N)C(=O)N[C@@H](Cc1ccccc1)C(N)=O)N*

Assays:
A. suum muscle strips = settings: cited from earlier work; for Threshold Concentration: lowest tested concentration that detectably altered tension and/or contractile activity in at least half the strips; for Threshold Concentration (ND class): highest concentration 10 μM
Ascaris suum tissues = settings: tritium on leucine moiety; cited from earlier work
[1] = biological target: receptor preparation (membrane fraction of Ascaris suum body wall muscle), AF2 binding sites; assay: Displacement of radioactive AF2 ([125I]AF2) in a receptor binding assay
Description: Adult female Ascaris suum, swine intestinal parasites, are collected in an abattoir after their removal from the intestine using pressurized water. Healthy specimens over 25 cm are selected, rinsed and placed in Ascaris Ringer's Solution (ARS: 4 mM NaCl, 5.9 mM CaCl2, 4.9 mM MgCl2, 5 mM Tris (C4 H11 NO3), 125 mM NaC2 H3 O2, 24.5 mM KCl, pH=7.4) at 37° C. Specimens are placed in a thermos filled with 37C Ascaris Ringer's solution and immediately air shipped to our laboratory. Upon arrival they are placed in fresh ARS (changed daily) and maintained at 37° C. for up to 3-4 days prior to use.
Ascaris suum body wall tissue (muscle) is dissected out by pinning each specimen in a dissection tray, opening the worm along its entire length at the lateral line with a scalpel, removing the intestine and ovaries and then scraping the muscle from the cuticle. One worm yields approximately 1.0 g tissue. Tissue collected is flash frozen in liquid nitrogen and stored at -80° C. until needed.
Membrane suspension for the binding assay is prepared as follows. […]
Each replicate is one well of a standard 96-well plate and has a volume of 200 μl containing 15 ug protein (preparation described above). […] The plate is shaken on a rotary shaker for 2 hours and then counted on a Top Count® scintillation counter. […]

[2] = tested on: innervated Ascaris suum muscle preparation; assay: Potency evaluation bioassay: muscle tension and contractile frequency of innervated Ascaris suum muscle preparation; settings: for Tension: 1 nM peptide, mean
Description: AF2 and iodinated AF2 were evaluated in a bioassay using an innervated Ascaris suum muscle preparation and potency was estimated by measuring the physiological effects of the peptides on A. suum muscle tension and contractile frequency.
An adult female was bisected transversely just anterior to the oviduct. A 2 cm segment was obtained anterior from the initial cut and that section was placed immediately under 37° C. medium in a dissection chamber. Two muscle strips were then prepared from each segment. Strips were prepared by cutting the segment longitudinally along one lateral line, removing the gut and then severing the opposite lateral line. Steel wires, 4 cm long, 0.25 mm diameter, with terminal sharpened hooks, were inserted through the muscle strip approximately 3 mm and centered from each end. These hooks were used to suspend the muscle strip between an isometric force transducer and a stationary holdfast in a 37° C. water jacketed incubation chamber filled with suppressive Ascaris Ringer's Solution constantly bubbled with N2. The transducer was connected to a Gould chart recorder via a Gould Universal amplifier.
The muscle tension on each preparation was "normalized" to zero five minutes before the addition of a test compound or vehicle. Compounds or vehicles were introduced from stock solutions and assayed at a final concentration of 1 nM in replicate (n=6). […] Inhibition is manifested as a drop in baseline tension (compared to control), while excitation is defined as a marked rise in baseline tension, often superimposed with transient muscle contractions (spiking). In order to estimate the net change in muscle tension of these preparations, the midpoint of the spike was estimated visually. Muscle tension data were analyzed by analysis of variance.

Compound	Threshold Concentration (A. suum muscle strips) [µM]	Threshold Concentration (ND class) (A. suum muscle strips)	further results
KNAFIRF-NH2	0.1	–	–
[^3 H]PF1: PF1 (Ser-Asp-Pro-Asn-Phe-Leu-Arg-Phe-NH2 ; SDPNFLRFamide) radiolabelled by exchanging a tritium atom for a hydrogen on the leucine moiety (SDPNFLRF-NH2; also: tritium label on Leu6)	–	–	specific binding (Ascaris suum tissues): 40%
FIRFamide	–	ND ("ND" means no detectable effect at 10 μM)	–
NEFIRF-NH2	–	ND ("ND" means no detectable effect at 10 μM)	–
ANEFIRF-NH2	–	ND ("ND" means no detectable effect at 10 μM)	–
KNEYIRF-NH2	3.2	–	–
CC(C)C[C@@H](CN[C@@H](CCCNC(=N)N)C(=O)N[C@@H](Cc1ccccc1)C(N)=O)NC(=O)[C@H](Cc1ccc(O)cc1)NC(=O)[C@H](CCC(=O)O)NC(=O)[C@H](Cc1c[nH]cn1)NC(=O)[C@@H](N)CCCCN [KHEYL*RFamide (reduced bond), KHEYL*RFamide] (H-KHEY-X1)	–	–	IC50 ([1]; displacement of radioactive AF2): 20 nM
KNEFIRA-NH2	–	ND ("ND" means no detectable effect at 10 μM)	–
KNEAIRF-NH2	3.2	–	–
KNEFARF-NH2	10	–	–
KNEFIAF-NH2	10	–	–
KAEFIRF-NH2	–	ND ("ND" means no detectable effect at 10 μM)	–
Lys-His-Glu-Tyr^--I -Leu-Arg-Phe-amide [Iodo AF2]	–	–	specific binding ([1]; radioligand in current embodiment of binding assay): > 80%; type of response of muscle tension ([2]; 1 nM): biphasic responses (short term inhibition followed by long term excitation); Tension ([2]; 5 min after peptide addition): -430 mg; Tension ([2]; 15 min after peptide addition): -403 mg; Tension ([2]; 30 min after peptide addition): -237 mg; Tension ([2]; 60 min after peptide addition): -437 mg; Spike amplitude ([2]; 1 nM, FIG. 1): significant increase
